In patent US12558428B2, “Heterobifunctional compounds and their use in treating disease” (Halda Therapeutics OpCo, Inc., priority 2024, dated 2026):

Legend:
Assay type in all cases: cell-based
[1] = tested on: T-Rex 293 cells having increased expression of estrogen receptor alpha protein; assay: Cellular growth inhibition assay, T-Rex 293 cells, (+) doxycycline; details: T-REx-293, 72 h, T-Rex 293 cells with doxycycline-induced ERα expression, 72 hours, CellTiter-Glo 2.0; read-out: (+) Dox TRex ERa (GI50)
Outline: (§1)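 Cells of an inducible ERα-expressing T-Rex 293 clone are seeded in charcoal-dextran FBS medium with or without 3 ng/mL doxycycline, then treated after 24 h with compound dilutions (0.5% DMSO) for 72 h. Growth inhibition is measured by CellTiter-Glo luminescence and expressed as GI50.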

[2] = tested on: T-Rex 293 cells lacking increased expression of estrogen receptor alpha protein; assay: Cellular growth inhibition assay, T-Rex 293 cells, (−) doxycycline; details: T-REx-293, 72 h, T-Rex 293 cells without doxycycline, 72 hours, CellTiter-Glo 2.0; read-out: (−) Dox TRex ERa (GI50)
Outline: as §1

[3] = tested on: MCF7 cells (ATCC #HTB-22); assay: Cellular growth inhibition assay, MCF7 cells purchased from ATCC; details: Homo sapiens, MCF7, 144 h, Table 8-A; MCF7 cells purchased from ATCC; six days; CellTiter-Glo; read-out: GI50
Experimental: Exemplary compounds were tested for the ability to inhibit the proliferation of MCF7 cells.
MCF7 cells (ATCC #HTB-22 or ECACC #86012803) were cultured in RPMI 1640 medium supplemented with 10% heat-inactivated fetal bovine serum, 1% pen-strep, and 0.2 U/ml insulin. Cells were seeded in 25 μL of RPMI 1640 medium supplemented with 10% heat-inactivated fetal bovine serum, 1% pen-strep, 0.2 U/ml insulin in poly-D-lysine treated, black clear-bottom 384-well plates at 225 cells/well for MCF7 cells purchased from ECACC or 1,500 cells/well for MCF7 cells purchased from ATCC. Following seeding, plates were spun at 300×g for 30 seconds and cultured at 37° C. with 5% CO2 in a humidified tissue culture incubator.
At 24 hours after seeding, compounds were titrated in 100% DMSO and diluted in RPMI 1640 medium supplemented with 10% heat-inactivate fetal bovine serum, 1% pen-strep, and 0.2 U/ml insulin. A 25 μL aliquot of the compound/media mixture was added to cells, bringing the total volume in each well to 50 μL. An equal volume of DMSO without compound was used as a negative control. After treatment, plates were spun at 300×g for 30 seconds, then cultured at 37° C. with 5% CO2 for six days in a humidified tissue culture incubator.
On Day 6 of treatment, cell viability was quantified with CellTiter-Glo 2.0 reagent (Promega). Plates were equilibrated to room temperature for 30 minutes, then 25 μL of CellTiter-Glo 2.0 reagent was added to cells, bringing the total volume in each well to 75 μL. After reagent was added, plates were mixed on a shaker for two minutes at 500 rpm and then incubated at room temperature for 10 minutes. Following incubation, plates were spun at 3,000×g for 30 seconds, sealed with an optical adhesive cover, and luminescence readings were measured with an EnVision Plate Reader.
Data was normalized to 0 luminescence for baseline. A four-parameter, non-linear regression curve fit was applied to dose-response data in GraphPad Prism data analysis software to determine the half maximal growth inhibitory concentration (GI50) for each compound.

Compound | GI50 [3] | GI50 [1] | GI50 [2]
Cc1sc2c(c1C)C(c1ccc(OCCCCC3CCN(c4ccc(C(=O)c5c(-c6ccc(O)cc6)sc6cc(O)ccc56)cc4)CC3)cc1)=N[C@@H](Cc1ncco1)c1nnc(C)n1-2 [I-21, (S)-(6-hydroxy-2-(4-hydroxyphenyl)benzo[b]thiophen-3-yl)(4-(4-(4-(4-(2,3,9-trimethyl-6-(oxazol-2-ylmethyl)-6H-thieno[3,2-f][1,2,4]triazolo[4,3-a][1,4]diazepin-4-yl)phenoxy)butyl)piperidin-1-yl)phenyl)methanone] | < 50 nM | < 50 nM | 50 to 500 nM
Cc1sc2c(c1C)C(c1ccc(OCCOCCOc3cc(F)c([C@@H]4c5[nH]c6ccccc6c5C[C@@H](C)N4CC(C)(C)F)c(F)c3)cc1)=N[C@@H](C)c1nnc(C)n1-2 [I-23, (S)-4-(4-(2-(2-(3,5-difluoro-4-((1R,3R)-2-(2-fluoro-2-methylpropyl)-3-methyl-2,3,4,9-tetrahydro-1H-pyrido[3,4-b]indol-1-yl)phenoxy)ethoxy)ethoxy)phenyl)-2,3,6,9-tetramethyl-6H-thieno[3,2-f][1,2,4]triazolo[4,3-a][1,4]diazepine] | 50 to 500 nM | 500 to 2500 nM | 500 to 2500 nM
Cc1sc2c(c1C)C(c1ccc(OCCOCCOCCOc3cc(F)c([C@@H]4c5[nH]c6ccccc6c5C[C@@H](C)N4CC(C)(C)F)c(F)c3)cc1)=N[C@@H](C)c1nnc(C)n1-2 [I-25, (S)-4-(4-(2-(2-(2-(3,5-difluoro-4-((1R,3R)-2-(2-fluoro-2-methylpropyl)-3-methyl-2,3,4,9-tetrahydro-1H-pyrido[3,4-b]indol-1-yl)phenoxy)ethoxy)ethoxy)ethoxy)phenyl)-2,3,6,9-tetramethyl-6H-thieno[3,2-f][1,2,4]triazolo[4,3-a][1,4]diazepine] | < 50 nM | 50 to 500 nM | 50 to 500 nM
Cc1sc2c(c1C)C(c1ccc(N3CCC(CN4CCN(c5ccc([C@@H]6c7ccc8n[nH]cc8c7C[C@@H](C)N6CC(F)(F)F)nc5)CC4)CC3)cc1)=N[C@@H](C)c1nnc(C)n1-2 [I-27, (S)-2,3,6,9-tetramethyl-4-(4-(4-((4-(6-((6S,8R)-8-methyl-7-(2,2,2-trifluoroethyl)-6,7,8,9-tetrahydro-2H-pyrazolo[4,3-f]isoquinolin-6-yl)pyridin-3-yl)piperazin-1-yl)methyl)piperidin-1-yl)phenyl)-6H-thieno[3,2-f][1,2,4]triazolo[4,3-a][1,4]diazepine] | 50 to 500 nM | < 50 nM | 500 to 2500 nM
Cc1sc2c(c1C)C(c1ccc(Cl)cc1)=N[C@@H](CC(=O)NCCCCOCCOc1ccc(C(=O)c3c(-c4ccc(Br)cc4)sc4cc(O)ccc34)cc1)c1nnc(C)n1-2 [I-28, (S)—N-(4-(2-(4-(2-(4-bromophenyl)-6-hydroxybenzo[b]thiophene-3-carbonyl)phenoxy)ethoxy)butyl)-2-(4-(4-chlorophenyl)-2,3,9-trimethyl-6H-thieno[3,2-f][1,2,4]triazolo[4,3-a][1,4]diazepin-6-yl)acetamide] | 50 to 500 nM | 50 to 500 nM | 500 to 2500 nM
Cc1sc2c(c1C)C(c1ccc(OCCOCCCN3CC[C@H](Oc4ccc(C5=C(c6ccc(Cl)cc6Cl)CCCc6cc(C(=O)O)ccc65)cc4)C3)cc1)=N[C@@H](C)c1nnc(C)n1-2 [I-32, 8-(2,4-dichlorophenyl)-9-(4-(((S)-1-(3-(2-(4-((S)-2,3,6,9-tetramethyl-6H-thieno[3,2-f][1,2,4]triazolo[4,3-a][1,4]diazepin-4-yl)phenoxy)ethoxy)propyl)pyrrolidin-3-yl)oxy)phenyl)-6,7-dihydro-5H-benzo[7]annulene-3-carboxylic acid] | 50 to 500 nM | < 50 nM | 500 to 2500 nM

More lines, main results first:

GI50 [3] | Compound | GI50 [1] | GI50 [2]
< 50 nM | Cc1sc2c(c1C)C(c1ccc(CC3CC4(CCN(CCOc5ccc(C(=O)c6c(-c7ccc(O)cc7)sc7cc(O)ccc67)cc5)CC4)C3)cc1)=N[C@@H](C)c1nnc(C)n1-2 [I-19, (S)-(6-hydroxy-2-(4-hydroxyphenyl)benzo[b]thiophen-3-yl)(4-(2-(2-(4-(2,3,6,9-tetramethyl-6H-thieno[3,2-f][1,2,4]triazolo[4,3-a][1,4]diazepin-4-yl)benzyl)-7-azaspiro[3.5]nonan-7-yl)ethoxy)phenyl)methanone] | < 50 nM | 50 to 500 nM
< 50 nM | Cc1sc2c(c1C)C(c1ccc(C#CC3CC4(CCN(CCOc5ccc(C(=O)c6c(-c7ccc(O)cc7)sc7cc(O)ccc67)cc5)CC4)C3)cc1)=N[C@@H](Cc1ncco1)c1nnc(C)n1-2 [I-20, (S)-(6-hydroxy-2-(4-hydroxyphenyl)benzo[b]thiophen-3-yl)(4-(2-(2-((4-(2,3,9-trimethyl-6-(oxazol-2-ylmethyl)-6H-thieno[3,2-f][1,2,4]triazolo[4,3-a][1,4]diazepin-4-yl)phenyl)ethynyl)-7-azaspiro[3.5]nonan-7-yl)ethoxy)phenyl) methanone] | < 50 nM | < 50 nM
< 50 nM | Cn1cc(-c2cc(C(C)(C)O)ccc2Oc2ccc(N3CC(CC4CCN(c5ccc(C(=O)c6c(-c7ccc(O)cc7)sc7cc(O)ccc67)cc5)CC4)C3)cc2)c2cc[nH]c2c1=O [I-22, 4-(2-(4-(3-((1-(4-(6-hydroxy-2-(4-hydroxyphenyl)benzo[b]thiophene-3-carbonyl)phenyl)piperidin-4-yl)methyl)azetidin-1-yl)phenoxy)-5-(2-hydroxy-propan-2-yl)phenyl)-6-methyl-1,6-dihydro-7H-pyrrolo[2,3-c]pyridin-7-one] | < 50 nM | 50 to 500 nM
< 50 nM | Cn1cc(-c2cc(C(C)(C)O)ccc2Oc2ccc(CC3CC4(CCN(CCOc5ccc(C(=O)c6c(-c7ccc(O)cc7)sc7cc(O)ccc67)cc5)CC4)C3)cc2)c2cc[nH]c2c1=O [I-24, 4-(2-(4-((7-(2-(4-(6-hydroxy-2-(4-hydroxyphenyl)benzo[b]thiophene-3-carbonyl)phenoxy)ethyl)-7-azaspiro[3.5]nonan-2-yl)methyl)phenoxy) -5-(2-hydroxypropan-2-yl)phenyl)-6-methyl-1,6-dihydro-7H-pyrrolo[2,3-c]pyridin-7-one] | 50 to 500 nM | 50 to 500 nM
< 50 nM | Cc1sc2c(c1C)C(c1ccc(C#CC3CC4(CCN(CCOc5ccc(C(=O)c6c(-c7ccc(O)cc7)sc7cc(O)ccc67)cc5)CC4)C3)cc1)=N[C@@H](C)c1nnc(C)n1-2 [I-29, (S)-(6-hydroxy-2-(4-hydroxyphenyl)benzo[b]thiophen-3-yl)(4-(2-(2-((4-(2,3,6,9-tetramethyl-6H-thieno[3,2-f][1,2,4]triazolo[4,3-a][1,4]diazepin-4-yl)phenyl)ethynyl)-7-azaspiro[3.5]nonan-7-yl)ethoxy)phenyl)methanone] | < 50 nM | < 50 nM
< 50 nM | Cc1sc2c(c1C)C(c1ccc(CC3CC4(CCN(CCOc5ccc(C(=O)c6c(-c7ccc(O)cc7)sc7cc(O)ccc67)cc5)CC4)C3)cc1)=N[C@@H](Cc1ncco1)c1nnc(C)n1-2 [I-30, (S)-(6-hydroxy-2-(4-hydroxyphenyl)benzo[b]thiophen-3-yl)(4-(2-(2-(4-(2,3,9-trimethyl-6-(oxazol-2-ylmethyl)-6H-thieno[3,2-f][1,2,4]triazolo[4,3-a][1,4]diazepin-4-yl)benzyl)-7-azaspiro[3.5]nonan-7-yl)ethoxy)phenyl)methanone] | < 50 nM | < 50 nM
< 50 nM | Cn1cc(-c2cc(C(C)(C)O)ccc2Oc2ccc(C#CC3CC4(CCN(CCOc5ccc(C(=O)c6c(-c7ccc(O)cc7)sc7cc(O)ccc67)cc5)CC4)C3)cc2)c2cc[nH]c2c1=O [I-31, 4-(2-(4-((7-(2-(4-(6-hydroxy-2-(4-hydroxyphenyl)benzo [b]thiophene-3-carbonyl)phenoxy)ethyl)-7-azaspiro[3.5]nonan-2-yl)ethynyl)phenoxy)-5-(2-hydroxypropan-2-yl)phenyl)-6-methyl-1,6-dihydro-7H-pyrrolo[2,3-c]pyridin-7-one] | < 50 nM | 50 to 500 nM
